# Measured values published in patent publication US12077503B2, “Substituted cyclic amides and their use as herbicides” (FMC CORPORATION, priority 2015, dated 2024).
# Key:
# Assay type in all cases: in vivo
# [1] = tested on: ragweed (common ragweed, Ambrosia elatior); assay: Test A preemergence; settings: Ambrosia artemisiifolia, pre-emergence, 240 h; for pest or weed control at 125 g/ha: 125 g ai/ha, preemergence, 0 to 100 scale where 0 is no effect and 100 is complete control, read-out: Ragweed plant response rating; for pest or weed control at 500 g/ha: 500 g ai/ha, Preemergence, visual injury vs untreated controls after approximately 10 d, read-out: Ragweed plant response rating (0 to 100 scale where 0 is no effect and 100 is complete control)
# In short: (§1)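 Ratings of 0 (no effect) to 100 (complete control) come from visual comparison with untreated controls roughly 10 d after treatment. Test chemicals, formulated in a non-phytotoxic solvent mixture with surfactant, were applied either as a preemergence directed soil spray on seeded soil or postemergence to one- to two-leaf plants 2 to 10 cm tall.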
# Kochia (Kochia scoparia) [2] = assay: Test A preemergence; settings: Bassia scoparia, pre-emergence, 240 h; for pest or weed control at 125 g/ha: 125 g ai/ha, preemergence, 0 to 100 scale where 0 is no effect and 100 is complete control, read-out: Kochia plant response rating; for pest or weed control at 500 g/ha: 500 g ai/ha, Preemergence, visual injury vs untreated controls after approximately 10 d, read-out: Kochia plant response rating (0 to 100 scale where 0 is no effect and 100 is complete control)
# In short: as §1
# [3] = tested on: ryegrass, Italian (Italian ryegrass, Lolium multiflorum); assay: Test A preemergence; settings: Lolium multiflorum, pre-emergence, 240 h; for pest or weed control at 125 g/ha: 125 g ai/ha, preemergence, 0 to 100 scale where 0 is no effect and 100 is complete control, read-out: Ryegrass, Italian plant response rating; for pest or weed control at 500 g/ha: 500 g ai/ha, Preemergence, visual injury vs untreated controls after approximately 10 d, read-out: Ryegrass, Italian plant response rating (0 to 100 scale where 0 is no effect and 100 is complete control)
# In short: as §1
# [4] = tested on: pigweed (Amaranthus retroflexus); assay: Test A preemergence; settings: Amaranthus retroflexus, pre-emergence, 240 h; for pest or weed control at 125 g/ha: 125 g ai/ha, preemergence, 0 to 100 scale where 0 is no effect and 100 is complete control, read-out: Pigweed plant response rating; for pest or weed control at 500 g/ha: 500 g ai/ha, Preemergence, visual injury vs untreated controls after approximately 10 d, read-out: Pigweed plant response rating (0 to 100 scale where 0 is no effect and 100 is complete control)
# [5] = tested on: giant foxtail (Setaria faberii); assay: Test A preemergence; settings: Setaria faberi, pre-emergence, 240 h; for pest or weed control at 125 g/ha: 125 g ai/ha, preemergence, 0 to 100 scale where 0 is no effect and 100 is complete control, read-out: Foxtail, Giant plant response rating; for pest or weed control at 500 g/ha: 500 g ai/ha, Preemergence, visual injury vs untreated controls after approximately 10 d, read-out: Foxtail, Giant plant response rating (0 to 100 scale where 0 is no effect and 100 is complete control)
# In short: as §1
# [6] = tested on: barnyardgrass (Echinochloa crus-galli); assay: Test A preemergence; settings: Echinochloa crus-galli, pre-emergence, 240 h; for pest or weed control at 125 g/ha: 125 g ai/ha, preemergence, 0 to 100 scale where 0 is no effect and 100 is complete control, read-out: Barnyardgrass plant response rating; for pest or weed control at 500 g/ha: 500 g ai/ha, Preemergence, visual injury vs untreated controls after approximately 10 d, read-out: Barnyardgrass plant response rating (0 to 100 scale where 0 is no effect and 100 is complete control)
# In short: as §1
# Kochia (Kochia scoparia) [7] = assay: Test A postemergence; settings: Bassia scoparia, post-emergence, 240 h, 125 g ai/ha, postemergence, visual injury rating after approximately 10 d; read-out: Kochia plant response rating (0 to 100 scale, 0 no effect, 100 complete control)
# In short: as §1
# [8] = tested on: wheat (Triticum aestivum); assay: Test A postemergence; settings: Triticum aestivum, post-emergence, 240 h, 125 g ai/ha, postemergence, visual injury rating after approximately 10 d; read-out: Wheat plant response rating (0 to 100 scale, 0 no effect, 100 complete control)
# In short: as §1
# [9] = tested on: giant foxtail (Setaria faberii); assay: Test A postemergence; settings: Setaria faberi, post-emergence, 240 h, 125 g ai/ha, postemergence, visual injury rating after approximately 10 d; read-out: Foxtail, Giant plant response rating (0 to 100 scale, 0 no effect, 100 complete control)
# In short: as §1
# [10] = tested on: barnyardgrass (Echinochloa crus-galli); assay: Test A postemergence; settings: Echinochloa crus-galli, post-emergence, 240 h, 125 g ai/ha, postemergence, visual injury rating after approximately 10 d; read-out: Barnyardgrass plant response rating (0 to 100 scale, 0 no effect, 100 complete control)
# In short: as §1
# rice (Oryra sativa) = assay: Test B flooded paddy test; settings: Oryza sativa, Flood, 250 g ai/ha; scale of 0 to 100 where 0 is no effect and 100 is complete control; read-out: Rice plant response rating
# In short: (§2)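 Rating scale 0–100 (visual, vs untreated controls) after a 13–15 d greenhouse period; application to the flood layer, 3 cm above soil and maintained; plants at 2-leaf stage when treated.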
# [11] = tested on: ducksalad (Heteranthera limosa); assay: Test B flooded paddy test; settings: Heteranthera limosa, Flood, 250 g ai/ha; scale of 0 to 100 where 0 is no effect and 100 is complete control; read-out: Ducksalad plant response rating
# In short: as §2
# [12] = tested on: sedge, umbrella (small-flower umbrella sedge, Cyperus difformis); assay: Test B flooded paddy test; settings: Cyperus difformis, Flood, 250 g ai/ha; scale of 0 to 100 where 0 is no effect and 100 is complete control; read-out: Sedge, Umbrella plant response rating
# In short: as §2
# [13] = tested on: barnyardgrass (Echinochloa crus-galli); assay: Test B flooded paddy test; settings: Echinochloa crus-galli, Flood, 250 g ai/ha; scale of 0 to 100 where 0 is no effect and 100 is complete control; read-out: Barnyardgrass plant response rating
# In short: as §2
Structure (SMILES),pest or weed control at 125 g/ha [1],pest or weed control at 500 g/ha [1],pest or weed control at 125 g/ha (Kochia (Kochia scoparia) [2]),pest or weed control at 500 g/ha (Kochia (Kochia scoparia) [2]),pest or weed control at 125 g/ha [3],pest or weed control at 500 g/ha [3],pest or weed control at 125 g/ha [4],pest or weed control at 500 g/ha [4],pest or weed control at 125 g/ha [5],pest or weed control at 500 g/ha [5],pest or weed control at 125 g/ha [6],pest or weed control at 500 g/ha [6],pest or weed control at 125 g/ha (Kochia (Kochia scoparia) [7]),plant injury at 125 g/ha [8],pest or weed control at 125 g/ha [9],pest or weed control at 125 g/ha [10],pest or weed control at 250 g/ha (rice (Oryra sativa)),pest or weed control at 250 g/ha [11],pest or weed control at 250 g/ha [12],pest or weed control at 250 g/ha [13]
Cc1cc(F)cc([C@H]2CN(C)C(=O)[C@@H]2C(=O)Nc2cccc(F)c2F)c1 [Compound 849],80%,90%,80%,80%,80%,90%,40%,50%,90%,90%,90%,90%,0%,30%,90%,90%,15%,100%,0%,75%
Cc1cc(F)cc([C@H]2CN(C)C(=O)[C@@H]2C(=O)Nc2ccccc2F)c1 [Compound 850],0%,0%,30%,70%,70%,70%,20%,30%,90%,90%,90%,90%,0%,20%,80%,90%,0%,90%,0%,70%
COc1ccc([C@H]2CN(C)C(=O)[C@@H]2C(=O)Nc2ccccc2F)cc1OC [Compound 852],0%,0%,0%,20%,0%,30%,20%,40%,90%,90%,90%,90%,0%,0%,80%,90%,0%,40%,0%,40%
COc1ccc([C@H]2CN(C)C(=O)[C@@H]2C(=O)Nc2cccc(F)c2F)cc1OC [Compound 853],0%,20%,40%,40%,0%,60%,40%,40%,90%,100%,90%,100%,0%,0%,90%,90%,20%,40%,0%,70%
COc1ccc([C@H]2CN(C)C(=O)[C@@H]2C(=O)Nc2ccccc2SC)cc1OC [Compound 854],0%,0%,0%,0%,0%,0%,0%,0%,50%,80%,0%,80%,0%,0%,50%,0%,0%,0%,0%,0%
COc1cc([C@H]2CN(C)C(=O)[C@@H]2C(=O)Nc2cccc(F)c2F)cc(C(F)(F)F)c1 [Compound 856],0%,20%,40%,50%,50%,80%,20%,50%,90%,90%,90%,90%,30%,50%,90%,80%,0%,75%,0%,50%
COc1cc(C(F)(F)F)ccc1[C@H]1CN(C)C(=O)[C@@H]1C(=O)Nc1cccc(F)c1F [Compound 859],0%,50%,50%,60%,20%,80%,60%,80%,90%,90%,90%,90%,20%,20%,80%,80%,0%,100%,0%,65%
